Results as given in US7618975B2, “4-arylamino-quinazolines and analogs as activators of caspases and inducers of apoptosis and the use thereof” (Myriad Pharmaceuticals, Inc., priority 2003, dated 2009).

The molecules below were run on T-47D cells (assay: Caspase cascade activation (N-(Ac-DEVD)-N′-ethoxycarbonyl-R110 fluorogenic substrate) in T-47D cells). Conditions: T-47D, 24 hr; ratio of net RFU to control.
Assay type: cell-based, Human
Also: test concentration or dose not given here.

SMILES	Caspase activity Ratio T-47D (24 hr)
COc1ccc(N(C)c2nc(N)nc3[nH]cnc23)cc1 [Example 17, N^6-(4-Methoxy-phenyl)-N-6-methyl-9H-purine-2,6-diamine]	3.0
[2H]c1c([2H])c(N(C)c2nc(C)nc3ccccc23)c([2H])c([2H])c1OC [Example 108]	4.8
CCOC(=O)c1nc(N(C)c2ccc(OC)cc2)c2ccccc2n1 [Example 117, Ethyl 4-(N-(4-Methoxy-phenyl)-N-methylamino)quinazoline-2-carboxylate]	7.4
COc1ccc(N(C)c2nc(C)nc3ccccc23)cc1F [Example 85, (3-Fluoro-4-methoxy-phenyl)-(2-methyl-quinazolin-4-yl)-methyl-amine]	7.6
COc1ccc(Nc2nc(Cl)nc3ccccc23)cn1 [Example 28, (2-Chloro-quinazolin-4-yl)-(6-methoxy-pyridin-3-yl)-amine]	1.0
CCc1ccc(N(C)c2nc(C)nc3ccccc23)cc1 [Example 87, (4-Ethyl-phenyl)-(2-methyl-quinazolin-4-yl)-methyl-amine]	6.3
COc1ccc(N(C)c2nc(SC)nc3ccccc23)cc1 [Example 120, (2-Methylthio-quinazolin-4-yl)-(4-methoxy-phenyl)-methyl-amine]	5.2
COc1cnc(N(C)c2nc(C)nc3ccccc23)cn1 [Example 126, (5-Methoxy-pyrazin-2-yl)-(2-methyl-quinazolin-4-yl)-methyl-amine]	7.6
COc1ccc(N(C)c2nc(NC/C=C(\C)CCC=C(C)C)nc3cc(OC)c(OC)cc23)cc1 [Example 24, 6,7-Dimethoxy-N^2-(3,7-dimethyl-octa-2,6-dienyl)-N^4-(4-methoxy-phenyl)-N^4-methyl-quinazoline-2,4-diamine]	1.0
Cc1nc(N(C)c2ccc(N)cc2Br)c2ccccc2n1 [Example 104, (4-Amino-2-bromo-phenyl)-(2-methyl-quinazolin-4-yl)-methyl-amine]	8.6
CN(c1ccccc1)c1nc(N(C)c2ccccc2)c2ccccc2n1 [Example 18, N^2,N^4-Dimethyl-N^2,N^4-diphenyl-quinazoline-2,4-diamine]	1.0
Cc1nc(N(C)c2ccc(C(=O)ON3C(=O)CCC3=O)cc2)c2ccccc2n1 [Example 119, Succinimidyl 4-(N-Methyl-N-(2-methylquinazolin-4-yl)amino)benzoic Acid Ester]	11.8

Same assay, conditions: T-47D, 48 hr; ratio of net RFU to control

SMILES	Caspase activity Ratio T-47D (48 hr)
COc1ccc(N(C)c2nc(Cl)nc3ccc(C)cc23)cc1 [Example 56, (2-Chloro-6-methyl-quinazolin-4-yl)-(4-methoxy-phenyl)-methyl-amine]	4.9
COc1ccc(N(C)c2nc(NCCO)nc3ccccc23)cn1 [Example 48, N^2-(2-Hydroxyethyl)-N^4-(6-methoxypyridin-3-yl)-N^4-methyl-quinazoline-2,4-diamine]	12.5
COc1ccc(N(C)c2nc(Cl)nc3cccc(C)c23)cc1 [Example 58, (2-Chloro-5-methyl-quinazolin-4-yl)-(4-methoxy-phenyl)-methyl-amine]	10.8
COc1ccc(N(C)c2nc(CF)nc3ccccc23)cc1 [Example 55, (2-Fluoromethyl-quinazolin-4-yl)-(4-methoxy-phenyl)-methyl-amine]	9.0
COc1ccc(Nc2nc(Cl)nc3ccccc23)cn1 [Example 28, (2-Chloro-quinazolin-4-yl)-(6-methoxy-pyridin-3-yl)-amine]	1.0
CCN(c1ccc(OC)cc1)c1nc(Cl)nc2ccccc12 [Example 40, (2-Chloro-quinazolin-4-yl)-ethyl-(4-methoxy-phenyl)-amine]	6.1
COc1ccc(N(C)c2nc(NC/C=C(\C)CCC=C(C)C)nc3cc(OC)c(OC)cc23)cc1 [Example 24, 6,7-Dimethoxy-N^2-(3,7-dimethyl-octa-2,6-dienyl)-N^4-(4-methoxy-phenyl)-N^4-methyl-quinazoline-2,4-diamine]	2.4
CN(c1ccccc1)c1nc(N(C)c2ccccc2)c2ccccc2n1 [Example 18, N^2,N^4-Dimethyl-N^2,N^4-diphenyl-quinazoline-2,4-diamine]	1.0
COc1ccc(CN(C)c2nc(Cl)nc3ccccc23)cc1 [Example 26, (2-Chloro-quinazolin-4-yl)-(4-methoxy-benzyl)-methyl-amine]	15.7
